Among the data in EP0430300A2, “Xanthine derivatives, their production and use” (Takeda Chemical Industries, Ltd., priority 1989, dated 1991) are IC50 values, retold here.

The assay concerns the target T1, Angiotensin II receptor (Bos taurus, UniProt P25104).
T1 construct: Angiotensin II receptor membrane fractions were prepared from bovine adrenal cortex; from tissue; host or cells: bovine adrenal cortex membrane fraction
T1 sequence (P25104 1-359): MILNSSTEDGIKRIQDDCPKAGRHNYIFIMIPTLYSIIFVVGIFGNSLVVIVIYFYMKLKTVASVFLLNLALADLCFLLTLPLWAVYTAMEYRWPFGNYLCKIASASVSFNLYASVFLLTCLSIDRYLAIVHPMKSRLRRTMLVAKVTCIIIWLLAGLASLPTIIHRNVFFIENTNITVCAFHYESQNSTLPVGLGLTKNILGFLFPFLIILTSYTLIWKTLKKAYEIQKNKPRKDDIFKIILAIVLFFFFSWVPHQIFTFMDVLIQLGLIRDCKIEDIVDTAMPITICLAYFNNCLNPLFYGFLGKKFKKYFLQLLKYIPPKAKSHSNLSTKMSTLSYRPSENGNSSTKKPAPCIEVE
Put plainly: Inhibitory effect on binding of angiotensin II to angiotensin receptor (125I-AII radioligand binding, membrane fractions). The note with it: A II receptor membrane fraction from bovine adrenal cortex, room temperature, one hour, compound 10^-9-3x10^-5 M, read-out: Inhibitory Activity against Binding of Angiotensin II IC50. The method, then:
Inhibitory assay for the binding of angiotensin II to angiotensin receptor was conducted by modifying a method as described by Douglas et al. (Endocrinology, 102, 685-696 (1978)).
Angiotensin II receptor membrane fractions were prepared from bovine adrenal cortex.
The compound (I) of the present invention (10^-9-3x10^-5 M) and […] (^125I-AII) (1.8kBq/50µl) were added to the A II receptor membrane fraction and incubated at room temperature for one hour. The bound and free ^125I-AII were separated by a filter (Whatman GF/B filter) each other. The radioactivity of ^125I-All bound on the receptor was measured.
As usually defined, the IC50 is the concentration needed to halve the response being measured. `CCCCSc1nc2c(c(=O)n(CC)c(=O)n2CCC)n1Cc1ccc(-c2ccccc2-c2nnn[nH]2)cc1` [Compound 26]: the IC50 came to 2000 nM.

`CCCCSc1nc2c(c(=O)n(CCC)c(=O)n2CCC)n1Cc1ccc(-c2ccccc2-c2nnn[nH]2)cc1` [Compound 25]: the half-maximal inhibitory concentration (IC50) is 560 nM.

Consider `CCCCSc1nc2c(c(=O)n(C)c(=O)n2C)n1Cc1ccc(-c2ccccc2-c2nnn[nH]2)cc1` [Compound 34], for which the IC50 is 130 nM.

Regarding `CCCCc1nc2c(c(=O)n(CCC)c(=O)n2CCCC)n1Cc1ccc(-c2ccccc2-c2nnn[nH]2)cc1` [Compound 28], the IC50 was 190 nM.

With `Cn1c(=O)c2c(nc(C3CC3)n2Cc2ccc(-c3ccccc3-c3nn[nH]n3)cc2)n(C)c1=O` [Compound 8], the half-maximal inhibitory concentration (IC50) came out at 600 nM.

With `Cn1c(=O)c2c(nc(-c3ccccc3)n2Cc2ccc(-c3ccccc3-c3nn[nH]n3)cc2)n(C)c1=O` [Compound 7], the half-inhibitory concentration (IC50) worked out at 65 nM.

Regarding `CCCCCc1nc2c(c(=O)n(C)c(=O)n2C)n1Cc1ccc(-c2ccccc2C(=O)O)cc1` [Compound 4, 7-(2'-Carboxybiphenyl-4-yl)methyl-8-n-pentyl-1,3-dimethylxanthine], the IC50 turned out to be 62 nM.

As to `CCCc1nc2c(c(=O)n(CC)c(=O)n2CCC)n1Cc1ccc(-c2ccccc2-c2nn[nH]n2)cc1` [Compound 21], the 50% inhibitory concentration (IC50) turned out to be 560 nM.

Consider `CC(Cc1nc2c(c(=O)n(C)c(=O)n2C)n1Cc1ccc(-c2ccccc2-c2nn[nH]n2)cc1)c1ccccc1` (stereo not shown) [Compound 12], for which the IC50 was 330 nM.

As for `CCOc1nc2c(c(=O)n(CC)c(=O)n2CC)n1Cc1ccc(-c2ccccc2-c2nnn[nH]2)cc1` [Compound 35], the IC50 came out at 1100 nM.

With `Cn1c(=O)c2c(nc(C3CCCC3)n2Cc2ccc(-c3ccccc3-c3nn[nH]n3)cc2)n(C)c1=O` [Compound 9], the half-maximal inhibitory concentration (IC50) came to 940 nM.

As for `CCCc1nc2c(c(=O)n(C)c(=O)n2C)n1Cc1ccc(-c2ccccc2-c2nn[nH]n2)cc1` [Compound 5], the 50% inhibitory concentration (IC50) was 170 nM.

Take `CCCSc1nc2c(c(=O)n(C)c(=S)n2C)n1Cc1ccc(-c2ccccc2-c2nn[nH]n2)cc1` [Compound 20]: the IC50 was found to be 1500 nM.

Turning to `CCCCc1nc2c(c(=O)n(CCC)c(=O)n2CCC)n1Cc1ccc(-c2ccccc2-c2nn[nH]n2)cc1` [Compound 23], the half-maximal inhibitory concentration (IC50) amounted to 1100 nM.

On to `CCCCc1nc2c(c(=O)n(C)c(=O)n2C)n1Cc1ccc(-c2ccccc2-c2nnn[nH]2)cc1` [Compound 1], for which the IC50 turned out to be 280 nM.

Take `CC(C)Cc1nc2c(c(=O)n(C)c(=O)n2C)n1Cc1ccc(-c2ccccc2-c2nn[nH]n2)cc1` [Compound 15]: the 50% inhibitory concentration (IC50) was 150 nM.

Consider `CCCCSc1nc2c(c(=O)n(C)c(=O)n2C)n1Cc1ccc(-c2ccccc2C(=O)O)cc1` [Compound 33], for which the IC50 was 280 nM.

Consider `CCC=CCc1nc2c(c(=O)n(CCC)c(=O)n2CCC)n1Cc1ccc(-c2ccccc2-c2nnn[nH]2)cc1` [Compound 30], for which the half-maximal inhibitory concentration (IC50) turned out to be 380 nM.

With `Cn1c(=O)c2c(nc(Cc3ccccc3)n2Cc2ccc(-c3ccccc3-c3nn[nH]n3)cc2)n(C)c1=O` [Compound 10], the IC50 is 3400 nM.

As for `CCCCc1nc2c(c(=O)n(C)c(=S)n2C)n1Cc1ccc(-c2ccccc2-c2nn[nH]n2)cc1` [Compound 13], the IC50 turned out to be 49 nM.

Regarding `CCCCc1nc2c(c(=O)n(CCCC)c(=O)n2CCCC)n1Cc1ccc(-c2ccccc2-c2nnn[nH]2)cc1` [Compound 27], the concentration for half-maximal inhibition (IC50) amounted to 2100 nM.

As to `CCCCc1nc2c(c(=O)n(CCCC)c(=O)n2C)n1Cc1ccc(-c2ccccc2-c2nnn[nH]2)cc1` [Compound 29], the IC50 was found to be 1000 nM.

As to `CCCSc1nc2c(c(=S)n(C)c(=O)n2C)n1Cc1ccc(-c2ccccc2-c2nn[nH]n2)cc1` [Compound 19], the IC50 turned out to be 1500 nM.

For `CCCCc1nc2c(c(=O)n(CC)c(=O)n2CC)n1Cc1ccc(-c2ccccc2-c2nnn[nH]2)cc1` [Compound 31], the IC50 amounted to 110 nM.

`Cn1c(=O)c2c(nc(CCCCc3ccccc3)n2Cc2ccc(-c3ccccc3-c3nn[nH]n3)cc2)n(C)c1=O` [Compound 14]: the half-maximal inhibitory concentration (IC50) was determined as 330 nM.

With `CCCCSc1nc2c(c(=S)n(C)c(=O)n2C)n1Cc1ccc(-c2ccccc2-c2nn[nH]n2)cc1` [Compound 17], the IC50 was found to be 760 nM.

Take `CCCCc1nc2c(c(=O)n(CC)c(=O)n2CCC)n1Cc1ccc(-c2ccccc2-c2nn[nH]n2)cc1` [Compound 22]: the IC50 worked out at 840 nM.

Regarding `CCOc1nc2c(c(=O)n(C)c(=O)n2C)n1Cc1ccc(-c2ccccc2-c2nnn[nH]2)cc1` [Compound 2, 8-Ethoxy-1,3-dimethyl-7-[[2'-(1 H-tetrazole-5-yl)-biphenyl-4-yl)methyl)xanthine], the half-inhibitory concentration (IC50) came out at 49 nM.
